Data taken from the kinase profiling compilation of Christmann-Franck et al. (2016).

Assays:
Assay in all cases: KINOMEscan competition binding
Conditions in all cases: compound 10.0 µM
[1] = target: JAK1 JH2 pseudokinase (human) (UniProt P23458)
PRKX (human) = PRKX (human) (UniProt P51817)
TIE1 (human) = TIE1 (human) (UniProt P35590)
[2] = target: JAK2 JH1 catalytic (human) (UniProt O60674)
PIK3CB (human) = PIK3CB (human) (UniProt P42338)
PRKD1 (human) = PRKD1 (human) (UniProt Q15139)
TNK2 (human) = TNK2 (human) (UniProt Q07912)
MINK1 (human) = MINK1 (human) (UniProt Q8N4C8)
FGFR1 (human) = FGFR1 (human) (UniProt P11362)
[3] = tested on: EGFR (human), P00533 [G719S]
GSK3A (human) = GSK3A (human) (UniProt P49840)
CDK17 (human) = CDK17 (human) (UniProt Q00537)
LYN (human) = LYN (human) (UniProt P07948)
SIK2 (human) = SIK2 (human) (UniProt Q9H0K1)
MAP3K11 (human) = MAP3K11 (human) (UniProt Q16584)
TNK1 (human) = TNK1 (human) (UniProt Q13470)
FLT1 (human) = FLT1 (human) (UniProt P17948)
[4] = tested on: EIF2AK4 KD2 (human), Q9P2K8 [S808G]
RPS6KA1 KD2 (human) = RPS6KA1 KD2 (human) (UniProt Q15418)
DAPK2 (human) = DAPK2 (human) (UniProt Q9UIK4)
PRKCH (human) = PRKCH (human) (UniProt P24723)
PIP4K2B (human) = PIP4K2B (human) (UniProt P78356)
CDK14 (human) = CDK14 (human) (UniProt O94921)
AXL (human) = AXL (human) (UniProt P30530)
ACVRL1 (human) = ACVRL1 (human) (UniProt P37023)
ALK (human) = ALK (human) (UniProt Q9UM73)
KDR (human) = KDR (human) (UniProt P35968)
PLK4 (human) = PLK4 (human) (UniProt O00444)
MYO3A (human) = MYO3A (human) (UniProt Q8NEV4)
PKN1 (human) = PKN1 (human) (UniProt Q16512)
CSNK2A2 (human) = CSNK2A2 (human) (UniProt P19784)
EPHA5 (human) = EPHA5 (human) (UniProt P54756)
CSNK1G1 (human) = CSNK1G1 (human) (UniProt Q9HCP0)

Sequence of PRKX (human) (P51817 whole entry, looked up): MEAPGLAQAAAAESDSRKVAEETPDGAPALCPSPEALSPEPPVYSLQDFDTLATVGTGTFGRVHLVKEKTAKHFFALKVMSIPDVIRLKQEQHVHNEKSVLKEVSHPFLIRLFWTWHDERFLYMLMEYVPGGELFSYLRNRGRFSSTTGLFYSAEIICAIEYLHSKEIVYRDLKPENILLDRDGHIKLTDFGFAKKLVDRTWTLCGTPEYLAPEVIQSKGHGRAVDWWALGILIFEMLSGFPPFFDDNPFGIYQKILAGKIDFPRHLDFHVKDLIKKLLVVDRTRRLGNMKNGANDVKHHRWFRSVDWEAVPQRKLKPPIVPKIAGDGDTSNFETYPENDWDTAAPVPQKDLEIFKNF
Sequence of KDR (human) (P35968 whole entry, looked up): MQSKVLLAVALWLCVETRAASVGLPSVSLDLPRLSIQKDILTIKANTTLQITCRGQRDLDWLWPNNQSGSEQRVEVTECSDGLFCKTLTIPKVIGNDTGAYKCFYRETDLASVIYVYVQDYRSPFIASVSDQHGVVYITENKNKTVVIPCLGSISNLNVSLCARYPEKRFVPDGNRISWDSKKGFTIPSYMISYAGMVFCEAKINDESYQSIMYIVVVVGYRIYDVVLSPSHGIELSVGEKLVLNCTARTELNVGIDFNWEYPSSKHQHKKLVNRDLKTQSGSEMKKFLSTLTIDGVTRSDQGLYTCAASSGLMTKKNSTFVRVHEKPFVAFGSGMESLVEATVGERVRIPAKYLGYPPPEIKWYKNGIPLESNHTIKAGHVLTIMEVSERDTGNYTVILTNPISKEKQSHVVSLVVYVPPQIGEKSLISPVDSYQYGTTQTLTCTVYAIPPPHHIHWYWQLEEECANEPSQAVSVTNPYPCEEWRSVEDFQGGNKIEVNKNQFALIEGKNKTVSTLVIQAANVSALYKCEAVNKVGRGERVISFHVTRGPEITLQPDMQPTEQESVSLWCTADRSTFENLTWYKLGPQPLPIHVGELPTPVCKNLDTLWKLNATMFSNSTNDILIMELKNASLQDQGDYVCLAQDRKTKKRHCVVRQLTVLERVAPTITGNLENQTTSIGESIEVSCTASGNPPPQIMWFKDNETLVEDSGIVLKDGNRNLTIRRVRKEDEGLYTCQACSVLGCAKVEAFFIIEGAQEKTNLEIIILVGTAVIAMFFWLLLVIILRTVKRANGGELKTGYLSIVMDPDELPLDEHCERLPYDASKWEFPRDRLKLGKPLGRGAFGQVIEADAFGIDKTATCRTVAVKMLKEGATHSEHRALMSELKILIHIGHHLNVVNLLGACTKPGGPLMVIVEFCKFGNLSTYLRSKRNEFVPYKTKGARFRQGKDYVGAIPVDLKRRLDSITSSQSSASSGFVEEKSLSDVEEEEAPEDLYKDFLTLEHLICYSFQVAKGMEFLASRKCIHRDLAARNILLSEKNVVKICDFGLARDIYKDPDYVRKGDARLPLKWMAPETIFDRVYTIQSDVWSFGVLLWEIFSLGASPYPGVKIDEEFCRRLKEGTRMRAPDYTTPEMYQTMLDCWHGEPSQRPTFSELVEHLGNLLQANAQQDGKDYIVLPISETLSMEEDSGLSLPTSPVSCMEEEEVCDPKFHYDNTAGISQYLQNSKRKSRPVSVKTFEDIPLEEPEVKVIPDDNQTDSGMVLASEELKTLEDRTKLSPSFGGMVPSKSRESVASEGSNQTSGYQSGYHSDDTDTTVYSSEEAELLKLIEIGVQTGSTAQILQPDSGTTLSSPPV
Sequence of GSK3A (human) (P49840 whole entry, looked up): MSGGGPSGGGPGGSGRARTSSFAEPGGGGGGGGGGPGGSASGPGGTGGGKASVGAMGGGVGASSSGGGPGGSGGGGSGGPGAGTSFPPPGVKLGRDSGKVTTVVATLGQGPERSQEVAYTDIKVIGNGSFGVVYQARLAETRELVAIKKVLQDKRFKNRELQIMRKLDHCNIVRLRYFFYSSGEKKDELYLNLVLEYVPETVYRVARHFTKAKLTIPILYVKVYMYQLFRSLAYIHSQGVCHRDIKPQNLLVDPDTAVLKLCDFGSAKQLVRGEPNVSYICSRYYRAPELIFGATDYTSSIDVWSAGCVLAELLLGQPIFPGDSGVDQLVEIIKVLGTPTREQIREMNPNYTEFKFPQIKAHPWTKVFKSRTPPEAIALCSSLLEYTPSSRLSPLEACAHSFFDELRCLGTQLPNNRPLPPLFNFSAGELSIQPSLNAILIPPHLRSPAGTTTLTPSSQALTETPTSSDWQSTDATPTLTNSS
Sequence of PIP4K2B (human) (P78356 whole entry, looked up): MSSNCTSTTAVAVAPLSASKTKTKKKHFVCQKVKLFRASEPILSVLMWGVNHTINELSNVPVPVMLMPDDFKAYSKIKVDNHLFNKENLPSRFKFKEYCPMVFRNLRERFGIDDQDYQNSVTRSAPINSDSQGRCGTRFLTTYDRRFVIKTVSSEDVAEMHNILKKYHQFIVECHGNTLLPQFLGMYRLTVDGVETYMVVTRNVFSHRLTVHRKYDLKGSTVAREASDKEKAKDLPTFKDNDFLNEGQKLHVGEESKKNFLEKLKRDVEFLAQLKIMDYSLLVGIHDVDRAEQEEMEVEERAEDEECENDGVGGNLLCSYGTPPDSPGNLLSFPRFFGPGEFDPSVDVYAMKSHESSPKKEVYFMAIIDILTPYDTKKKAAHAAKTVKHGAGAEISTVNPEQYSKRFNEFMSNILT
Sequence of PKN1 (human) (Q16512 whole entry, looked up): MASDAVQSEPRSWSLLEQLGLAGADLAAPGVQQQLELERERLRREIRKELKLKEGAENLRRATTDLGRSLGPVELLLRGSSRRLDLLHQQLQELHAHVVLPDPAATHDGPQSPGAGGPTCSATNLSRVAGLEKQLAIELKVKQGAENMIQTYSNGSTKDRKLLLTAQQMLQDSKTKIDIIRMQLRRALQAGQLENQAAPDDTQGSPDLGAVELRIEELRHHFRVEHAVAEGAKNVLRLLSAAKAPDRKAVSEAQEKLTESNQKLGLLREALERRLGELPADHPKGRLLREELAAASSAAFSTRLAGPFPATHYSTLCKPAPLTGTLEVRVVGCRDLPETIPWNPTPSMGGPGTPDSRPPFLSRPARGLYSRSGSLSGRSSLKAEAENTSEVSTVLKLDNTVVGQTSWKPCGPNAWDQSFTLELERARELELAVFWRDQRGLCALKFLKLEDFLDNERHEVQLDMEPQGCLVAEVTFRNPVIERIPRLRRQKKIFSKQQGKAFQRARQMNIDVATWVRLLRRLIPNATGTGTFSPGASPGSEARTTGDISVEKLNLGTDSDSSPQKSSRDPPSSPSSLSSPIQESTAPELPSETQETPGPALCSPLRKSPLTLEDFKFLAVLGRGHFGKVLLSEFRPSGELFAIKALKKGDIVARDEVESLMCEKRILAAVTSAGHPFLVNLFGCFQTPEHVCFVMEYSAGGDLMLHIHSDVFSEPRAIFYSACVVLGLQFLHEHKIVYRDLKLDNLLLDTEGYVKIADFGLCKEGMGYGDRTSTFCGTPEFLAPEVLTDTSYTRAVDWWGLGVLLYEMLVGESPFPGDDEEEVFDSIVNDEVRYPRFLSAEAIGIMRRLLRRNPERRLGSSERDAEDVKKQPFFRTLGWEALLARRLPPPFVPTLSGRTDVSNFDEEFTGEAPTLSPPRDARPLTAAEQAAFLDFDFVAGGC
Sequence of TNK1 (human) (Q13470 whole entry, looked up): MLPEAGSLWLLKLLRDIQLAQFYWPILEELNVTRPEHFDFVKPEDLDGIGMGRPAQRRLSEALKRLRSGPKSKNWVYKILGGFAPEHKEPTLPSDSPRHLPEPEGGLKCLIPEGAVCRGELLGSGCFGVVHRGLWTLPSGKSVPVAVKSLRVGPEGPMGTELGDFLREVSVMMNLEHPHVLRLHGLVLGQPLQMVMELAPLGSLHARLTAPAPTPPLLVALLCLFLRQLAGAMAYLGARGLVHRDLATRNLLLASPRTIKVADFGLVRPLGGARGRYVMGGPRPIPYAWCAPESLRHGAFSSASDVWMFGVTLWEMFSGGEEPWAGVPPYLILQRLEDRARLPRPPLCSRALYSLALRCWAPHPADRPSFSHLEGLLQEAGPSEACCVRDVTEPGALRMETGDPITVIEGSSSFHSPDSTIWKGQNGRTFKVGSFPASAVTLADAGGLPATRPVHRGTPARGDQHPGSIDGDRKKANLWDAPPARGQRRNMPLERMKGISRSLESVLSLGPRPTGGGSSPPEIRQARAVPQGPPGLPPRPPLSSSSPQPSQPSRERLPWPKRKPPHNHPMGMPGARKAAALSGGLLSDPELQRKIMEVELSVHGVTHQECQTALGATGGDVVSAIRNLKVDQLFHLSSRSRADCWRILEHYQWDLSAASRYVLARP
Sequence of DAPK2 (human) (Q9UIK4 whole entry, looked up): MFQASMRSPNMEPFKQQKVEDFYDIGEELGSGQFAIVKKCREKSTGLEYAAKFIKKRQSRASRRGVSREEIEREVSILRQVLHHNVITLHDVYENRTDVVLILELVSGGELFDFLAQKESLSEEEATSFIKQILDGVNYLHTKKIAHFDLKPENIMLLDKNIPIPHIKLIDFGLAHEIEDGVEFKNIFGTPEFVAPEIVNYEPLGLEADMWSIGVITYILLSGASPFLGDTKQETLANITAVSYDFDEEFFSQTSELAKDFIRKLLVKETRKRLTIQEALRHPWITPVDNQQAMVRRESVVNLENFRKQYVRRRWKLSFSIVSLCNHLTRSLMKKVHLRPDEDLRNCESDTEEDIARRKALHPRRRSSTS
Sequence of CSNK2A2 (human) (P19784 whole entry, looked up): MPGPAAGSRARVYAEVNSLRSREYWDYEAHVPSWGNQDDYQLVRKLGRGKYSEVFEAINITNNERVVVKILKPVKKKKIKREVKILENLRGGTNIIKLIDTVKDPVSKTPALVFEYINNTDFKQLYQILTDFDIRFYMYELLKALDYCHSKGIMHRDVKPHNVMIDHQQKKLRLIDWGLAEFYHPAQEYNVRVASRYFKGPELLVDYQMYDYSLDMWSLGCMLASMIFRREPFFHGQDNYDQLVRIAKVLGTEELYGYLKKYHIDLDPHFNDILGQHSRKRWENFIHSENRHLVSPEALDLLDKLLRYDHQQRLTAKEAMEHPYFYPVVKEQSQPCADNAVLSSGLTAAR

Structure (SMILES)	kinase still bound, per cent of control [1]	kinase still bound, per cent of control (PRKX (human))	kinase still bound, per cent of control (TIE1 (human))	kinase still bound, per cent of control [2]	kinase still bound, per cent of control (PIK3CB (human))	kinase still bound, per cent of control (PRKD1 (human))	kinase still bound, per cent of control (TNK2 (human))	kinase still bound, per cent of control (MINK1 (human))	kinase still bound, per cent of control (FGFR1 (human))	kinase still bound, per cent of control (GSK3A (human))	kinase still bound, per cent of control (CDK17 (human))	kinase still bound, per cent of control (LYN (human))	kinase still bound, per cent of control (SIK2 (human))	kinase still bound, per cent of control (MAP3K11 (human))	kinase still bound, per cent of control (TNK1 (human))	kinase still bound, per cent of control (FLT1 (human))	kinase still bound, per cent of control [4]	kinase still bound, per cent of control (RPS6KA1 KD2 (human))	kinase still bound, per cent of control (DAPK2 (human))	kinase still bound, per cent of control (PRKCH (human))	further results
C=CC(=O)Nc1cccc(Oc2nc(Nc3ccc(N4CCN(C)CC4)cc3OC)ncc2Cl)c1	100%	100%	100%	100%	100%	12%	18%	100%	10%	100%	100%	100%	20%	100%	1.8%	100%	0.35%	100%	28%	100%	kinase still bound, per cent of control [3]: 0.3%; kinase still bound, per cent of control (PIP4K2B (human)): 100%; kinase still bound, per cent of control (CDK14 (human)): 100%; kinase still bound, per cent of control (AXL (human)): 100%; kinase still bound, per cent of control (ACVRL1 (human)): 100%; kinase still bound, per cent of control (ALK (human)): 0.7%; kinase still bound, per cent of control (KDR (human)): 100%; kinase still bound, per cent of control (PLK4 (human)): 0.2%; kinase still bound, per cent of control (MYO3A (human)): 28%; kinase still bound, per cent of control (PKN1 (human)): 100%; kinase still bound, per cent of control (CSNK2A2 (human)): 100%; kinase still bound, per cent of control (EPHA5 (human)): 100%; kinase still bound, per cent of control (CSNK1G1 (human)): 100%
COc1cc(C(=O)NC2CCN(C)CC2)ccc1Nc1ncc2c(n1)N(C1CCCC1)C(C)CC(=O)N2C (stereo not drawn)	22%	100%	100%	100%	100%	100%	100%	100%	100%	100%	100%	100%	100%	100%	100%	100%	100%	22%	100%	100%	kinase still bound, per cent of control [3]: 100%; kinase still bound, per cent of control (PIP4K2B (human)): 100%; kinase still bound, per cent of control (CDK14 (human)): 100%; kinase still bound, per cent of control (AXL (human)): 100%; kinase still bound, per cent of control (ACVRL1 (human)): 100%; kinase still bound, per cent of control (ALK (human)): 6.2%; kinase still bound, per cent of control (KDR (human)): 100%; kinase still bound, per cent of control (PLK4 (human)): 100%; kinase still bound, per cent of control (MYO3A (human)): 100%; kinase still bound, per cent of control (PKN1 (human)): 100%; kinase still bound, per cent of control (CSNK2A2 (human)): 100%; kinase still bound, per cent of control (EPHA5 (human)): 100%; kinase still bound, per cent of control (CSNK1G1 (human)): 100%
CC[C@@H]1C(=O)N(C)c2cnc(Nc3ccc(C(=O)NC4CCN(C)CC4)cc3OC)nc2N1C1CCCC1	100%	100%	100%	100%	100%	7%	100%	100%	100%	100%	100%	100%	100%	100%	32%	100%	100%	21%	16%	100%	kinase still bound, per cent of control (PIP4K2B (human)): 100%; kinase still bound, per cent of control (CDK14 (human)): 100%; kinase still bound, per cent of control (AXL (human)): 100%; kinase still bound, per cent of control (ACVRL1 (human)): 100%; kinase still bound, per cent of control (PLK4 (human)): 100%; kinase still bound, per cent of control (MYO3A (human)): 100%; kinase still bound, per cent of control (PKN1 (human)): 100%; kinase still bound, per cent of control (CSNK2A2 (human)): 100%; kinase still bound, per cent of control (EPHA5 (human)): 100%
Cc1ccc(C(=O)Nc2cccc(C(F)(F)F)c2)cc1Nc1cncc(C(N)=O)c1	100%	100%	100%	100%	100%	100%	100%	100%	100%	100%	100%	9.4%	100%	100%	100%	33%	100%	100%	100%	100%	kinase still bound, per cent of control [3]: 100%; kinase still bound, per cent of control (PIP4K2B (human)): 100%; kinase still bound, per cent of control (CDK14 (human)): 100%; kinase still bound, per cent of control (AXL (human)): 100%; kinase still bound, per cent of control (ACVRL1 (human)): 100%; kinase still bound, per cent of control (ALK (human)): 100%; kinase still bound, per cent of control (KDR (human)): 100%; kinase still bound, per cent of control (PLK4 (human)): 100%; kinase still bound, per cent of control (MYO3A (human)): 100%; kinase still bound, per cent of control (PKN1 (human)): 100%; kinase still bound, per cent of control (CSNK2A2 (human)): 100%; kinase still bound, per cent of control (EPHA5 (human)): 1.1%; kinase still bound, per cent of control (CSNK1G1 (human)): 100%
